Active and inactive are the calls of the source.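 The calls were made as follows: active = maximal inhibition of the USP30 enzyme reaching 30% or more across the dose series; inactive = the rest.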
What follows are compounds tested against Ubiquitin carboxyl-terminal hydrolase 30 (Homo sapiens) (UniProt Q70CQ3) (assay: ubiquitin-specific protease 30 DUB inhibitors, concentration-effect, biochemical, validation of primary actives (AID 1645865)). Conditions: purified USP30, Ub-rhodamine cleavage, fluorescence, 2 h.
Ubiquitin carboxyl-terminal hydrolase 30 (Homo sapiens), sequence (Q70CQ3 whole entry, looked up): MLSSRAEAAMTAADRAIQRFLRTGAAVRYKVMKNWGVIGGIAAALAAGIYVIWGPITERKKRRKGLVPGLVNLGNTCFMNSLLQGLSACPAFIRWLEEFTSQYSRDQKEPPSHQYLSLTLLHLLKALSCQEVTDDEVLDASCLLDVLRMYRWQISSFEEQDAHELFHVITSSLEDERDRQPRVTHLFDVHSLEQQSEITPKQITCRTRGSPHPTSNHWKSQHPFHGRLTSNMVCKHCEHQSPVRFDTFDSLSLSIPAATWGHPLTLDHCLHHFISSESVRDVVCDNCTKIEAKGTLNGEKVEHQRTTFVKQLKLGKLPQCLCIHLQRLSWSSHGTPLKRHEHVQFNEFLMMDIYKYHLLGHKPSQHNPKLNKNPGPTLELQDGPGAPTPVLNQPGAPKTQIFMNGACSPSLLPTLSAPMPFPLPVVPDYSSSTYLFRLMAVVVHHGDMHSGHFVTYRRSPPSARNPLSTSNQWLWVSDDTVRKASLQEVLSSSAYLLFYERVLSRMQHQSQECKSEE
With `COc1ccc(C(=O)Nc2cc(-c3ccccn3)no2)cn1` the IC50 was > 50 µM (inactive).
With `O=C(c1ccc(COc2cccc3ccccc23)o1)N1CCC(Cc2ccccc2)CC1` the IC50 was > 50 µM (inactive).
Compound `COc1cccc(C(=O)Oc2ccc3c(=O)c(-c4ccc(OC)c(OC)c4)coc3c2)c1` has an IC50 of 0.152 µM.
`O=C(Cn1c(=O)n(CC(=O)NC2CCCC2)c(=O)c2ccccc21)Nc1cc(Cl)ccc1Cl` gave an IC50 of 2.42 µM.
With `Cc1ccc(CNC(=O)c2ccc(N3C(=O)[C@@H]4Cc5ccccc5CN4C3=O)cc2)cc1` the IC50 was 23.6 µM.
`CCOCCCn1c(SCC(=O)Nc2ccccc2C(F)(F)F)nc2ccccc2c1=O` gave an IC50 of 17.1 µM.
`CC1=C(C)C(c2c(-c3ccc(C)cc3)[nH]c3ccccc23)N(C(C)(C)C)C1=O` (configuration not stated) gave an IC50 of 1.85 µM.
For `CCCCc1nc2sc3c(SCC(=O)Nc4cccc(C)c4)ncnc3c2c2c1CCC2`, the IC50 was > 50 µM (inactive).
Work on `CC(OC(=O)c1c2c(nc3ccccc13)CCCCC2)C(=O)Nc1ccc2ccccc2c1` (configuration not stated) yielded an IC50 of 2.65 µM.
Compound `COc1ccccc1NS(=O)(=O)c1cccc(NC(=O)CCc2nc3ccccc3s2)c1` has an IC50 of 4.01 µM.
`CCCN1CCN(C(=O)c2cc(NC(=O)C3CCC3)cc3nc(C)ccc23)CC1` was tested, and the IC50 was > 50 µM (inactive).
Compound `Cc1ccc(-c2nc(NC(=O)COc3ccc(Cl)cc3)no2)cc1` has an IC50 of 1.35 µM.
For `Cc1ccc(Cn2c(=O)c3ccccc3n3c(CCC(=O)N4CCN(c5ccccn5)CC4)nnc23)cc1`, the IC50 was 3.41 µM.
`CC1CC[C@]2(NC1)O[C@H]1C[C@H]3[C@@H]4CC[C@H]5C[C@@H](O[C@@H]6O[C@H](CO)[C@H](O[C@@H]7O[C@H](CO)[C@@H](O)[C@H](O[C@@H]8OC[C@@H](O)[C@H](O)[C@H]8O)[C@H]7O[C@@H]7O[C@H](CO)[C@@H](O)[C@H](O)[C@H]7O)[C@H](O)[C@H]6O)CC[C@]5(C)[C@H]4CC[C@]3(C)[C@H]1[C@@H]2C` (some centres not stated) showed an IC50 of 39.5 µM.
`O=C(Cn1c(=O)n(CCC(=O)N2CC=C(c3ccccc3)CC2)c(=O)c2ccccc21)NCc1ccco1` was tested, and the IC50 was > 50 µM (inactive).
`CC(=O)c1sc(NC(=O)c2ccccc2-c2ccc(C(F)(F)F)cc2)nc1C` was tested, and the IC50 was 11 µM.
For `Cn1c(=O)sc2cc(NC(=O)c3ccc(Br)cc3)ccc21`, the IC50 was 2.21 µM.
Compound `COc1ccc(CCNC(=O)CSc2cn(CCNC(=O)c3ccc(F)cc3)c3ccccc23)cc1OC` has an IC50 of 19.9 µM.
`CCOc1ccc(CCNC(=O)CCC(=O)Nc2ccc3nc(N4CCN(C)CC4)cc(C)c3c2)cc1OCC` was tested, and the IC50 was > 50 µM (inactive).
For `COc1cccc(N2CCN(C(=O)c3cc(NC(C)=O)cc4nc(C)ccc34)CC2)c1`, the IC50 was > 50 µM (inactive).
`COc1ccc(NC(=O)c2nnn(-c3ccccc3F)c2C)cc1OC` was tested, and the IC50 was > 50 µM (inactive).
With `COc1ccc(CCNC(=O)CCCCn2c(=O)c3ccccc3n(Cc3cccc(Cl)c3)c2=O)cc1OC` the IC50 was 24.6 µM.
For `Cc1cc(NC(=O)c2[nH]nc3c2CCc2ccccc2-3)no1`, the IC50 was 4.47 µM.
In the case of `CCOc1ccccc1NC(=O)COc1cc(OC)ccc1C(=O)c1ccccc1`, the IC50 is reported as > 50 µM (inactive).
In the case of `COc1ccc(CNC(=O)CSc2nc3nc(C)ccc3o2)cc1`, the IC50 is reported as 19.7 µM.
In the case of `COc1ccc(CC(=O)Nc2nc(-c3ccco3)c(-c3ccco3)s2)cc1`, the IC50 is reported as > 50 µM (inactive).
`COc1ncccc1CN1CCn2c(Cn3cncn3)cnc2C1C` (configuration not stated) was tested, and the IC50 was > 50 µM (inactive).
With `COc1ccc(CCNC(=O)CCCn2c(=O)c3ccccc3n(CC(=O)OCc3ccccc3)c2=O)cc1OC` the IC50 was 18.3 µM.
`O=C(NCc1ccc2c(c1)OCO2)c1[nH]nc2c1COc1ccccc1-2` gave an IC50 of 1.97 µM.
In the case of `COc1ccc(NC(=O)c2nnn(-c3ccccc3)c2C)cc1OC`, the IC50 is reported as > 50 µM (inactive).
With `Cc1cc(C)cc(NC(=O)CSc2ccc(-c3ccncc3)nn2)c1` the IC50 was 34.6 µM.
In the case of `Cc1cccc(C(=O)N2CCN3Cc4ccccc4N(C)CC3C2)c1` (configuration not stated), the IC50 is reported as > 50 µM (inactive).
`O=C(Nc1ccc2c(c1)OCCO2)c1cc(CN2CCOCC2)on1` was tested, and the IC50 was > 50 µM (inactive).
With `C/C=C(\Cl)C1=CC(=O)[C@]23C[C@H]2[C@@]2(C)CO[C@@]1(O)[C@@]3(O)O2` the IC50 was > 50 µM (inactive).
For `O=C(Nc1cccn(Cc2c(Cl)cccc2Cl)c1=O)c1ccccc1[N+](=O)[O-]`, the IC50 was > 50 µM (inactive).
In the case of `Cc1ccc2c(C)nc(Nc3ncc4c(n3)CC(c3ccco3)CC4=O)nc2c1` (configuration not stated), the IC50 is reported as < 0.05 µM.
`O=C(CCc1ccccc1)N(CC1CCCO1)c1nc2ccccc2s1` (configuration not stated) gave an IC50 of 37.3 µM.
With `N#Cc1c(-c2cccs2)cc(-c2cccs2)[nH]c1=O` the IC50 was > 50 µM (inactive).
With `COc1cccc(-c2cc(C(=O)Nc3cc(C)n(Cc4ccc(Cl)cc4)n3)no2)c1` the IC50 was 4.38 µM.
For `CC(C)(C)c1cc(CCC(=O)Nc2c3c(nc4c2CCC4)CCCC3)cc(C(C)(C)C)c1O`, the IC50 was > 50 µM (inactive).
For `CCOc1ccc(NC(=O)COc2cccc(-n3cnnn3)c2)cc1`, the IC50 was > 50 µM (inactive).
Work on `Cc1nc(C(=O)Nc2cccc(Cl)c2Cl)nn1-c1cc(Cl)cc(Cl)c1` yielded an IC50 of 0.0981 µM.
`O=C(COc1nsnc1N1CCOCC1)Nc1ccc(F)c(F)c1` was tested, and the IC50 was > 50 µM (inactive).
For `COc1cccc(-n2ccc(=O)c(-c3nc(-c4ccccc4Cl)no3)n2)c1`, the IC50 was > 50 µM (inactive).
`CC(C)Cc1cc(-c2nnc3sc(-c4ccco4)nn23)n[nH]1` was tested, and the IC50 was > 50 µM (inactive).
`NC(=O)c1nnn(-c2ccc(NC(=O)c3ccc(F)c(F)c3)cc2)n1` was tested, and the IC50 was 15 µM.
For `CCOc1ccc(CCNC(=O)c2cccc3c2C(=O)N(CCOC)C3)cc1OCC`, the IC50 was > 50 µM (inactive).
`Nc1c(-c2ccc(Cl)cc2)cnc2cc(-c3ccc(Cl)c(Cl)c3)nn12` showed an IC50 of 1.49 µM.
Work on `CC(C)c1ccc(NC(=O)COC(=O)c2ccc3[nH]c4c(c3c2)CCCC4)cc1` yielded an IC50 of 34.1 µM.
`Cc1ccc(Nc2nc(Nc3cccc(Cl)c3)nc3nccnc23)cc1` was tested, and the IC50 was > 50 µM (inactive).
For `O=C(Nc1cc(Cl)cc(Cl)c1)c1csnn1`, the IC50 was 16 µM.
With `Cc1nn(C)c2c1[C@@H](c1ccc(F)cc1)[C@H](NC(=O)c1ccccc1)C(=O)N2` the IC50 was > 50 µM (inactive).
For `CSc1cccc(NC(=O)COc2cccc3ccccc23)c1`, the IC50 was 1.46 µM.
In the case of `O=C(c1cnccn1)N1CCc2[nH]c3ccc(F)cc3c2C1`, the IC50 is reported as > 50 µM (inactive).
In the case of `O=C(C1CCCN(S(=O)(=O)N2CCCCCC2)C1)N1CCN(c2ccccc2)CC1` (configuration not stated), the IC50 is reported as > 50 µM (inactive).
In the case of `O=C(Nc1ccc2c(c1)OCCO2)Nc1nnc(CC(=O)N2CCCCC2)s1`, the IC50 is reported as > 50 µM (inactive).
Compound `Cn1nc(-c2ccccc2)c(COC(=O)c2ccc([N+](=O)[O-])cc2)c1Cl` has an IC50 of 23.4 µM.
`Fc1cccc(Cn2cc(-c3noc(-c4ccncc4)n3)nn2)c1` was tested, and the IC50 was 22.8 µM.
`COc1ccc(OC)c(C2CC(=O)Nc3n[nH]c(-c4ccccc4)c32)c1` (configuration not stated) showed an IC50 of 25.6 µM.
`N#Cc1ccc(NC(=O)COC(=O)c2ccc3ccccc3n2)cc1` was tested, and the IC50 was > 50 µM (inactive).
`O=C(COc1ncnc2ccccc12)Nc1ccc2c(c1)OC1(CCCC1)O2` was tested, and the IC50 was 42.2 µM.
For `Cc1cccc(C(=O)N2CCc3cc(-c4nc(NC(=O)CNc5ccccc5)sc4C)ccc32)c1`, the IC50 was > 50 µM (inactive).
`Cc1ccc(NC(=O)c2ccc(Nc3nnc(C)c4ccccc34)cc2)cc1` showed an IC50 of 43.2 µM.
For `COc1cccc(/C=C/C(=O)Nc2ccc(N3CCOCC3)cc2)c1OC`, the IC50 was > 50 µM (inactive).
`CC1=C(c2ccc(F)cc2)S(=O)(=O)NC1=NCC(=O)Nc1ccc(F)cc1F` gave an IC50 of 23.4 µM.
For `O=C(/C=C/c1ccccc1)N1CCN(C2=NS(=O)(=O)c3ccccc32)CC1`, the IC50 was > 50 µM (inactive).
`COCCN(C1CCN(CCc2ccc(Cl)cc2)CC1)S(=O)(=O)c1cccc2cccnc12` was tested, and the IC50 was > 50 µM (inactive).
`CSc1ccc(CNC(=O)CC2CCN(S(=O)(=O)c3ccc(C)cc3)CC2)cc1` was tested, and the IC50 was 20.2 µM.
For `CC1=C(c2ccc(Cl)cc2)S(=O)(=O)NC1=NCC(=O)Nc1ccc(F)cc1`, the IC50 was 17 µM.
`COc1ccc2c(c1)CCc1c-2n[nH]c1C(=O)Nc1cc(C)on1` showed an IC50 of 4.04 µM.
In the case of `CN(c1ccccc1)c1nc(=O)n(CC(=O)Nc2ccc3c(c2)OCCO3)c2ccccc12`, the IC50 is reported as 35.9 µM.
`CSc1ncccc1C(=O)NC1(O)C(=O)c2ccccc2C1=O` was tested, and the IC50 was 29.5 µM.
In the case of `O=C(Cc1cccs1)Nc1cc(F)c2nc(N3CCOCC3)ccc2c1`, the IC50 is reported as > 50 µM (inactive).
For `Cn1c(-c2nnc(SCC(=O)NCCc3ccccc3)o2)cc2ccccc21`, the IC50 was 7 µM.
`O=C(CNC(=O)OCc1ccccc1)Nc1ccc(Br)cc1C(=O)c1ccccc1Cl` gave an IC50 of 5.77 µM.
`Cc1ccc(OC(=O)c2cn(-c3ccccc3)nc2-c2cccnc2)cc1` was tested, and the IC50 was > 50 µM (inactive).
For `FC(F)(F)c1ccccc1CCN1CCc2nc3ccc(Cl)cc3cc2C1`, the IC50 was > 50 µM (inactive).
`CC(=O)Nc1ccc(S(=O)(=O)NCc2ccc(C(=O)NCc3ccc(C)cc3)cc2)cc1` showed an IC50 of 26.5 µM.
With `O=C(COC(=O)c1n[nH]c2ccccc12)Nc1ccc(N2CCCCC2)cc1` the IC50 was 34.9 µM.
For `CCOC(=O)c1nc(Nc2ccc(OC)c(Cl)c2)c2ccccc2n1`, the IC50 was 26.6 µM.
`COc1ccccc1CC(=O)Nc1nc2ccccc2[nH]1` was tested, and the IC50 was 28.4 µM.
In the case of `Cc1cccc(CNC(=O)C2CCCN(S(=O)(=O)Cc3ccc(F)cc3)C2)c1` (configuration not stated), the IC50 is reported as 14.5 µM.
For `O=C(CN(Cc1ccc(Cl)cc1)S(=O)(=O)c1ccc(Cl)cc1)N1CCOCC1`, the IC50 was > 50 µM (inactive).
With `CCN(C(=O)c1cc2c(Cl)nc3ccccc3c2s1)c1ccccc1F` the IC50 was > 50 µM (inactive).
In the case of `O=C(OC1CSc2nc3ccccc3n2C1)c1ccc([N+](=O)[O-])o1` (configuration not stated), the IC50 is reported as 43.1 µM.
`CC(C)CCn1c(=O)c2ccccc2n2c(CCC(=O)NC3CCCCCC3)nnc12` was tested, and the IC50 was > 50 µM (inactive).
`Cc1cc(C)cc(N(CCC(=O)Nc2ccc(N3CCOCC3)cc2)S(=O)(=O)c2ccc(Cl)cc2)c1` showed an IC50 of 12.3 µM.
`c1coc(CNc2nc(Nc3cccc4ccccc34)nc3ccccc23)c1` was tested, and the IC50 was > 50 µM (inactive).
`CCCCNC(=O)c1cc2cccnc2n(Cc2ccccc2)c1=O` was tested, and the IC50 was > 50 µM (inactive).
In the case of `Cc1nc(Nc2c3ccccc3nc3ccccc23)sc1C`, the IC50 is reported as > 50 µM (inactive).
`CCOc1ccc(N2C(=O)c3ccccc3C2C(=O)NCc2ccccc2OC)cc1` (configuration not stated) showed an IC50 of 41.5 µM.
`Cc1ccc(NC(=O)c2nnn(-c3ccccc3)n2)cc1F` was tested, and the IC50 was > 50 µM (inactive).
In the case of `COc1ccc(-c2nc3n(n2)C(c2cccc(O)c2)C2=C(CCCC2=O)N3)cc1` (configuration not stated), the IC50 is reported as 38.2 µM.
With `Cc1nc(-c2ccccc2F)sc1C(=O)Nc1cccnc1` the IC50 was > 50 µM (inactive).
In the case of `CN(C(=O)c1ccncc1)[C@H]1CC[C@@]2(C)C[C@H](c3ccccc3)C[C@](C)(O2)[C@@H]1O`, the IC50 is reported as > 50 µM (inactive).
`COc1ccc(NC(=O)c2nnc(C(=O)NCCN3CCCCCC3)s2)cc1` was tested, and the IC50 was 5.34 µM.
With `COc1cccc(NC(=O)c2ccc(F)cc2Cl)c1` the IC50 was > 50 µM (inactive).
